Molecular target: T1, Human IL-17AF (Homo sapiens, UniProt Q16552+Q96PD4)
T1 construct: purchased Sino Biological Inc. CT047-H08H
T1 sequence (Q16552 24-155): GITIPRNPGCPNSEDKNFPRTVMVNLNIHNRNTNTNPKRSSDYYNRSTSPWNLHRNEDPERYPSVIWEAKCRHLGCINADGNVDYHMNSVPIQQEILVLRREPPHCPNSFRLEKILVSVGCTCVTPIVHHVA
T1 sequence (Q96PD4 31-163): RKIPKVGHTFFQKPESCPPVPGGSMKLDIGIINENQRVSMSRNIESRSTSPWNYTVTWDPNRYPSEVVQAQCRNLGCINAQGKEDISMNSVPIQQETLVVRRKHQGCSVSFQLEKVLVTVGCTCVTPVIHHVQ
Test: IL-17AF ELISA (competitive ELISA, IL-17AF/IL-17Ra receptor-ligand binding)
Settings: human IL-17AF coated plate, human IL-17Ra, read-out: IC50, inhibitory activity of compounds on human IL-17AF
Outline: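 Plates coated with 0.625 μg/ml human IL-17AF in PBS pH 7.4 (37 °C, 30 min) and milk-blocked. Compounds pre-incubated with coated IL-17AF for 10 min at 25 °C, then IL-17Ra added (as 100 nM solution) for 30 min. Bound receptor detected by anti-Fc HRP/TMB at 450 nm; IC50 from variable-slope normalized fit versus DMSO control and blank.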

Structure (SMILES) | IC50
CCN1Cc2cc(NC(=O)[C@@H](NC(=O)c3ccnn3C(C)C)C(C3CC3)C3CC3)c(F)cc2-c2c(n[nH]c2C)CC1=O [compound 142] | ≤ 100 nM
CCn1nccc1C(=O)N[C@H](C(=O)Nc1cc2c(cc1F)-c1c(n[nH]c1C)CCN(CC(C)(F)F)C2)C(C1CC1)C1CC1 [compound 161] | ≤ 100 nM
Cc1[nH]nc2c1-c1cc(F)c(NC(=O)[C@@H](NC(=O)c3ccnn3C(C)C)C(C3CC3)C3CC3)cc1CN(CC(C)(F)F)CC2 [compound 160] | 100 to 500 nM
CCn1nccc1C(=O)N[C@H](C(=O)Nc1cc2c(cc1F)-c1c(n[nH]c1C)CCN(CC(F)F)C2)C(C1CC1)C1CC1 [compound 159] | ≤ 100 nM
CCn1nccc1C(=O)N[C@H](C(=O)Nc1cc2c(cc1F)-c1c(n[nH]c1C)CC(=O)N(C(C)C)C2)C(C1CC1)C1CC1 [compound 151] | ≤ 100 nM
Cc1[nH]nc2c1-c1cc(F)c(NC(=O)[C@@H](NC(=O)c3ccnn3C(C)C)C(C3CC3)C3CC3)cc1CN(C)C(=O)C2 [compound 132] | 100 to 500 nM
Cc1[nH]nc2c1-c1cc(F)c(NC(=O)[C@@H](NC(=O)c3ccnn3C(C)C)C(C3CC3)C3CC3)cc1CN(CC(F)F)C(=O)C2 [compound 144] | 100 to 500 nM
CCN1Cc2cc(NC(=O)[C@@H](NC(=O)c3ccnn3CC)C(C3CC3)C3CC3)c(F)cc2-c2c(n[nH]c2C)CC1=O [compound 143] | ≤ 100 nM
Cc1[nH]nc2c1-c1cc(F)c(NC(=O)[C@@H](NC(=O)c3ccnn3C(C)C)C(C3CC3)C3CC3)cc1CN(CC(F)(F)F)CC2 [compound 164] | 100 to 500 nM
CCN1CCc2n[nH]c(C)c2-c2cc(F)c(NC(=O)[C@@H](NC(=O)c3ccnn3C(C)C)C(C3CC3)C3CC3)cc2C1 [compound 156] | 100 to 500 nM
CCn1nccc1C(=O)N[C@H](C(=O)Nc1cc2c(cc1F)-c1c(n[nH]c1C)CC(=O)N(CC(C)(F)F)C2)C(C1CC1)C1CC1 [compound 149] | ≤ 100 nM
Cc1[nH]nc2c1-c1cc(F)c(NC(=O)[C@@H](NC(=O)c3ccnn3C(C)C)C(C3CC3)C3CC3)cc1CN(C(C)C)C(=O)C2 [compound 150] | ≤ 100 nM
Cc1[nH]nc2c1-c1cc(F)c(NC(=O)[C@@H](NC(=O)c3ccnn3C(C)C)C(C3CC3)C3CC3)cc1CN(C1CC1)CC2 [compound 165] | 100 to 500 nM
CCn1nccc1C(=O)N[C@H](C(=O)Nc1cc2c(cc1F)-c1c(n[nH]c1C)CC(=O)N(C)C2)C(C1CC1)C1CC1 [compound 133] | 100 to 500 nM
Cc1[nH]nc2c1-c1ccc(NC(=O)[C@@H](NC(=O)c3ccnn3C3CC3)C(C3CC3)C3CC3)cc1COCC2 [compound 6] | 100 to 500 nM
Cc1[nH]nc2c1-c1cc(F)c(NC(=O)[C@@H](NC(=O)c3ccnn3C(C)C)C(C3CC3)C3CC3)cc1CN(CC(F)F)CC2 [compound 158] | 100 to 500 nM
Cc1[nH]nc2c1-c1cc(F)c(NC(=O)[C@@H](NC(=O)c3ccnn3C(C)C)C(C3CC3)C3CC3)cc1CN(CC1CC1)C(=O)C2 [compound 153] | ≤ 100 nM
Cc1[nH]nc2c1-c1cc(F)c(NC(=O)[C@@H](NC(=O)c3ccnn3C(C)C)C(C3CC3)C3CC3)cc1CN(CC(F)(F)F)C(=O)C2 [compound 152] | 100 to 500 nM
Cc1[nH]nc2c1-c1cnc(NC(=O)[C@@H](NC(=O)c3ccnn3C[C@@H]3C[C@H]3F)C(C3CC3)C3CC3)cc1COCC2 [compound 125] | 100 to 500 nM
CCn1nccc1C(=O)N[C@H](C(=O)Nc1cc2c(cc1F)-c1c(n[nH]c1C)CC(=O)N(CC(F)F)C2)C(C1CC1)C1CC1 [compound 145] | ≤ 100 nM
CCn1nccc1C(=O)N[C@H](C(=O)Nc1ccc2c(c1)COCCc1n[nH]c(C)c1-2)C(C1CC1)C1CC1 [compound 3] | ≤ 100 nM
Cc1[nH]nc2c1-c1cc(F)c(NC(=O)[C@@H](NC(=O)c3ccnn3C(C)C)C(C3CC3)C3CC3)cc1CN(CC(C)(F)F)C(=O)C2 [compound 148] | 100 to 500 nM
Cc1[nH]nc2c1-c1cc(F)c(NC(=O)[C@@H](NC(=O)c3ccnn3C(C)C)C(C3CC3)C3CC3)cc1CN(C1CC1)C(=O)C2 [compound 136] | ≤ 100 nM

Source: patent US20260258050A1, “IMMUNOMODULATOR” (HITGEN INC., priority 2023, published 2026)
